Article PMC8682738, “Constrained peptides mimic a viral suppressor of RNA silencing” (Nucleic Acids Research, 2021)
Positions of bridges follow the written chain, without caps; N, C: chain ends. Non-standard residues stand in square brackets, D forms with d. Residues, ends and D or L forms follow the SMILES beside them. *: point of attachment. FITC = O=C1OC2(c3ccc(O)cc3Oc3cc(O)ccc32)c2ccc(NC(=S)*)cc21; R8 = C=CCCCCCC[C@@](C)(N)C(=O)O; S5 = C=CCCC[C@](C)(N)C(=O)O; AEEA = NCCOCCOCC(=O)O

What was measured:
Format in all cases: binding
[1] = molecular target: pre-miR-21; assay: ITC with pre-miR-21
Procedure: (§1) Isothermal titration calorimetry (ITC) was conducted using a MicroCal VP-ITC (Malvern Panalytical). Before measurement, oligonucleotide and peptide samples were dissolved in PBS and degassed using a ThermoVac (Malvern Panalytical) and heated to 30°C. N-terminally acetylated peptides (c = 3–12 μM) were then transferred into the sample cell and oligonucleotides (c = 12–72 μM) were transferred into the syringe. 35 Injections per measurement were performed at 30°C (8 μl injection volume, 2 s injection time, 180 s spacing, high feedback mode) with an initial delay of 60 s and a stirring speed of 307 rpm. Measurements were performed in triplicate. Using the MicroCal LLC ITC software (Origin; OriginLab Corporation), the heat associated with each injection was calculated by integrating the area under the curve in microcalories per second [μca/s] versus time [min] for each injection and then normalized to concentration. A ‘single set of identical binding sites’ model was used to fit the binding curves from which thermodynamic binding parameters (ΔG, ΔH, ΔS, N and Kd) were obtained.

[2] = molecular target: pal-RNA duplex; assay: ITC of N-terminally acetylated peptides with pal-RNA duplex; details: for fold increased affinity compared to linear peptide wt33: unlabeled analogs, pal-RNA
Procedure: as §1

[3] = molecular target: ds miR-21; assay: ITC with ds miR-21
Procedure: as §1

[4] = system: ds RNA hairpins HP 1–5; assay: EMSA with ds RNA hairpins HP 1-5; details: fluorescein-labeled B3 2 μM, hairpin RNA 1 μM, TAE and 10% glycerol, RT 1 h
Procedure: Electrophoretic mobility shift assays (EMSAs) were performed using a Bio-Rad Mini-Protean gel system paired with a direct current (DC) power source (PowerPac™ HC, Bio-Rad). Typically, 6 μl solutions containing ds RNA (c = 3 μM) and fluorescein-labeled peptide (c = 6 μM) were incubated in binding buffer (10 mM Tris (pH 8.0), 0.5 mM EDTA, 12.5% glycerol and 150 mM KCl) at 4°C for 1 h. After incubation, bound RNA was resolved from peptide-free RNA using 10% non-denaturing polyacrylamide gels at 120 V in running buffer (25 mM Tris (pH 8.0), 200 mM glycine, 20 mM NaCl) at 4°C for 1 h. Visualization of fluorescent gel-bound species was conducted using a Typhoon Trio + fluorescence scanner (GE Healthcare Life Sciences). For nucleic acid visualization, gels were stained using 2 μl of SYBR™ gold nucleic acid gel dye (Molecular Probes) in 20 ml of TAE buffer (40 mM Tris, 1 mM EDTA, 20 mM acetic acid) for 45 min at RT before being visualized using a FluorChem™ gel documentation system (Alpha Innotech). To assess B3 binding to different ds RNA sequences (Supplementary Figure S20), 6 μl solutions containing hairpin RNA (c = 1 μM) and fluorescein-labeled B3 (c = 2 μM) were incubated in binding buffer (TAE and 10% glycerol) at RT for 1 h, and then resolved using 15% non-denaturing polyacrylamide gels (acrylamide/bis-acrylamide (19:1) in TAE) at 150 V in running buffer (TAE) at 4°C for 1.5 h. […]

[5] = N-terminally acetylated peptide, PBS pH 7.4, 30°C, single set of identical binding sites model, triplicate, errors 1σ

| Structure (SMILES) | Kd [1] | Kd [2, 5] | Kd ([2]; pal-RNA duplex) | fold increased affinity compared to linear peptide wt33 [2] | Kd [3] | binding to ds RNA hairpins in EMSA [4] |
| --- | --- | --- | --- | --- | --- | --- |
| CC(C)C[C@H](NC(=O)[C@]1(C)CCCC=CCCC[C@](C)(NC(=O)[C@H](CCC(=O)O)NC(=O)[C@H](CO)NC(=O)[C@@H]2CCCN2C(=O)[C@H](CO)NC(=O)[C@H](CCCCN)NC(=O)[C@H](Cc2c[nH]cn2)NC(=O)CNC(=O)[C@H](CCCNC(=N)N)NC(=O)[C@]2(C)CCCC=CCCC[C@](C)(NC(=O)[C@H](CCCCN)NC(=O)[C@H](Cc3c[nH]cn3)NC(=O)[C@H](CCCNC(=N)N)NC(=O)[C@H](CCCCN)NC(=O)[C@H](CCCNC(=N)N)NC(=O)[C@H](CCC(N)=O)NC(=O)[C@H](C)NC(=O)[C@H](CCC(N)=O)NC(=O)[C@H](CCCCN)NC(=O)[C@H](CCCCN)NC(=O)COCCOCCNC(=S)Nc3ccc4c(c3)C(=O)OC43c4ccc(O)cc4Oc4cc(O)ccc43)C(=O)N[C@@H](CC(N)=O)C(=O)N[C@@H](CCCNC(=N)N)C(=O)N[C@@H](CCCCN)C(=O)N2)C(=O)N[C@@H](CCCNC(=N)N)C(=O)N[C@@H](CCCNC(=N)N)C(=O)N[C@@H](CO)C(=O)N1)C(=O)N[C@@H](Cc1c[nH]c2ccccc12)C(=O)N[C@@H](Cc1c[nH]cn1)C(=O)N[C@@H](C)C(=O)N[C@@H](CCCNC(=N)N)C(N)=O [B3] ({FITC-AEEA}-KKQAQRKRHK[S5]NRK[S5]RGHKSPSE[S5]RRS[S5]LWHAR-NH2; staple 11-15, 24-28) | 75 ± 8 nM | 70 nM | 70 ± 1 nM | 17 fold | 18 ± 2 nM | showed binding to each hairpin |
| CC(C)C[C@@H]1NC(=O)[C@@](C)(NC(=O)[C@H](CO)NC(=O)[C@H](CCCNC(=N)N)NC(=O)[C@H](CCCNC(=N)N)NC(=O)[C@H](CCC(N)=O)NC(=O)[C@H](CCC(=O)O)NC(=O)[C@H](CO)NC(=O)[C@@H]2CCCN2C(=O)[C@H](CO)NC(=O)[C@H](CCCCN)NC(=O)[C@H](Cc2c[nH]cn2)NC(=O)CNC(=O)[C@H](CCCNC(=N)N)NC(=O)[C@H](CCC(=O)O)NC(=O)[C@H](CCCCN)NC(=O)[C@H](CCCNC(=N)N)NC(=O)[C@H](CC(N)=O)NC(=O)[C@]2(C)CCCC=CCCCCCC[C@@](C)(NC(=O)[C@H](CCC(N)=O)NC(=O)[C@H](CCCCN)NC(=O)[C@H](CCCCN)NC(=O)COCCOCCNC(=S)Nc3ccc4c(c3)C(=O)OC43c4ccc(O)cc4Oc4cc(O)ccc43)C(=O)N[C@@H](CCC(N)=O)C(=O)N[C@@H](CCCNC(=N)N)C(=O)N[C@@H](CCCCN)C(=O)N[C@@H](CCCNC(=N)N)C(=O)N[C@@H](Cc3c[nH]cn3)C(=O)N[C@@H](CCCCN)C(=O)N2)CCCC=CCCC[C@@](C)(C(=O)N[C@@H](CCCNC(=N)N)C(N)=O)NC(=O)[C@H](Cc2c[nH]cn2)NC(=O)[C@H](Cc2c[nH]c3ccccc23)NC1=O [C1] ({FITC-AEEA}-KKQ[R8]QRKRHK[S5]NRKERGHKSPSEQRRS[S5]LWH[S5]R-NH2; staple 4-11, 28-32) | – | 180 nM | – | 7 fold | – | – |
